This note sets out measurements from patent US9676773B2, “Azaindole derivative” (TAIHO PHARMACEUTICAL CO., LTD., priority 2014, dated 2017).

The term IC50 denotes the concentration at which inhibition is half-maximal.

Bounds are passed on as bounds.

Type in all cases: biochemical
Assay [1] deals with T1, purified recombinant human JAK1 protein (Homo sapiens, UniProt P23458).
T1 construct: purchased Carna Biosciences, Inc
The experiment in a line: Measurement of JAK1 kinase-inhibitory activity. The settings on record: substrate peptide 1 μM, ATP 75 M (so in the source), 25° C., 120 minutes. As to the method: 1) Measurement of JAK1 Kinase-Inhibitory Activity
The activity of the compound of the present invention to inhibit the activity of JAK1 kinase was measured.
Among materials for the measurement of this inhibitory activity, a substrate peptide and a kinase protein were acquired as follows. As such a substrate peptide, a substrate peptide for QSS Assist™ JAK1-MSA assay kit (Carna Biosciences, Inc.) was purchased. As such a kinase protein, a purified recombinant human JAK1 protein (Carna Biosciences, Inc.) was purchased.
The method for measuring the inhibitory activity is as follows. First, the compounds of the present invention were each dissolved in dimethyl sulfoxide (DMSO), and a serial dilution was then prepared by the use of DMSO. Subsequently, a serial dilution solution of the compound (the final concentration of DMSO upon a kinase reaction: 5.0%) or DMSO (final concentration: 5.0%) was mixed with a solution containing the substrate peptide (final concentration: 1 μM), magnesium chloride (final concentration: 5 mM) and ATP (final concentration: 75 µM) in a buffer for kinase reaction (20 mM HEPES (pH 7.5), 2 mM dithiothreitol and 0.01% Triton X-100). Thereafter, a JAK1 protein was further added to the mixed solution, and the obtained mixture was then incubated at 25° C. for 120 minutes to carry out a kinase reaction. To the reaction solution, EDTA was added to a final concentration of 30 mM, so as to terminate the reaction. Finally, with LabChip EZ Reader II (Perkin Elmer Corp.), an unphosphorylated substrate peptide (S) and a phosphorylated peptide (P) were subjected to microchannel capillary electrophoresis, so that the two peptides were separated from each other and were then detected. The amount of a phosphorylation reaction was obtained based on the heights of the peaks of S and P, and the concentration of the compound capable of inhibiting 50% of the phosphorylation reaction was defined as an IC50 value (nM).

In assay [2] the target is T2, purified recombinant human JAK2 protein (Homo sapiens, UniProt O60674).
T2 construct: purchased Carna Biosciences, Inc
T2 sequence (O60674 whole entry): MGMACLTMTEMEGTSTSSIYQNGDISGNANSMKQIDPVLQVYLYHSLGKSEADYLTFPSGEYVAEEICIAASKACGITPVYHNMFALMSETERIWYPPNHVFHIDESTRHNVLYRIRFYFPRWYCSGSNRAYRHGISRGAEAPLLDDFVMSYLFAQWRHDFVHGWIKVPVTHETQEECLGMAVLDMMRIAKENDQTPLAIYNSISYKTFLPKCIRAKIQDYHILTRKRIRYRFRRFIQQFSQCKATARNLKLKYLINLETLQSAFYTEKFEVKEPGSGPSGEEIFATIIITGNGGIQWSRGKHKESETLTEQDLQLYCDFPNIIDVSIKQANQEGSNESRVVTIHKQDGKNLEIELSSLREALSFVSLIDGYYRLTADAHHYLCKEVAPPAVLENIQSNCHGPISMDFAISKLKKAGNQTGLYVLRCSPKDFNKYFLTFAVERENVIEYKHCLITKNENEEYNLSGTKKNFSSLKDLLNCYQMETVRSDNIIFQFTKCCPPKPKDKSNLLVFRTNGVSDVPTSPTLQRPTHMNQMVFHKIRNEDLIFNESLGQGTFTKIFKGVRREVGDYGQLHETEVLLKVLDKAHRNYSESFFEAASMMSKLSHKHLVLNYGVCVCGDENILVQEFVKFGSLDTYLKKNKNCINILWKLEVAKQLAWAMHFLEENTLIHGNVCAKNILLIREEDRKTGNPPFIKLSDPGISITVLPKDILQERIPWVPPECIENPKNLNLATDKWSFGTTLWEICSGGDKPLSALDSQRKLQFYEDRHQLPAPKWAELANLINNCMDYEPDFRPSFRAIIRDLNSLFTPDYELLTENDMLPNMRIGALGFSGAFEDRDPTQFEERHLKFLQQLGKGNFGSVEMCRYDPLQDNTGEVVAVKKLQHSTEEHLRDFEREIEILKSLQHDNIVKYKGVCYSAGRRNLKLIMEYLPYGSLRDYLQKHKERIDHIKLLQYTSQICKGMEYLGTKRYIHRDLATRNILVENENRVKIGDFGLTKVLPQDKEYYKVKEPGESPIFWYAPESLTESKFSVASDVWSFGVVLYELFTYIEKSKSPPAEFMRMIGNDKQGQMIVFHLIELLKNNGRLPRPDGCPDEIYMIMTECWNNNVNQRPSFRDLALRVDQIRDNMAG
Briefly: Measurement of JAK2 kinase-inhibitory activity. The settings on record: FL-Peptide 22 1 μM, ATP 10 μM, 25° C., 80 minutes. On the procedure: 2) Measurement of JAK2 Kinase-Inhibitory Activity
The activity of the compound of the present invention to inhibit the activity of JAK2 kinase was measured.
Among materials for the measurement of this inhibitory activity, a substrate peptide and a kinase protein were acquired as follows. As such a substrate peptide, FL-Peptide 22 (Perkin Elmer Corp.) was purchased. As such a kinase protein, a purified recombinant human JAK2 protein (Carna Biosciences, Inc.) was purchased.
(§1) The method for measuring the inhibitory activity is as follows. First, a serial dilution of the compound of the present invention was prepared by the same method as that described in the above section regarding JAK1. This serial dilution solution (the final concentration of DMSO upon a kinase reaction: 5.0%) or DMSO (final concentration: 5.0%) was mixed with a solution containing the substrate peptide (final concentration: 1 μM), magnesium chloride (final concentration: 10 mM) and ATP (final concentration: 10 μM) in a buffer for kinase reaction (15 mM Tris (pH 7.5), 2 mM dithiothreitol and 0.01% Tween 20). Thereafter, a JAK2 protein was further added to the mixed solution, and the obtained mixture was then incubated at 25° C. for 80 minutes to carry out a kinase reaction. To the reaction solution, EDTA was added to a final concentration of 30 mM, so as to terminate the reaction. After termination of the reaction, the measurement and the data analysis were carried out by the same methods as those described in the above section regarding JAK1.

Assay [3] addresses T3, purified recombinant human JAK3 protein (Homo sapiens, UniProt P52333).
T3 construct: purchased Carna Biosciences, Inc
T3 sequence (P52333 1-1124): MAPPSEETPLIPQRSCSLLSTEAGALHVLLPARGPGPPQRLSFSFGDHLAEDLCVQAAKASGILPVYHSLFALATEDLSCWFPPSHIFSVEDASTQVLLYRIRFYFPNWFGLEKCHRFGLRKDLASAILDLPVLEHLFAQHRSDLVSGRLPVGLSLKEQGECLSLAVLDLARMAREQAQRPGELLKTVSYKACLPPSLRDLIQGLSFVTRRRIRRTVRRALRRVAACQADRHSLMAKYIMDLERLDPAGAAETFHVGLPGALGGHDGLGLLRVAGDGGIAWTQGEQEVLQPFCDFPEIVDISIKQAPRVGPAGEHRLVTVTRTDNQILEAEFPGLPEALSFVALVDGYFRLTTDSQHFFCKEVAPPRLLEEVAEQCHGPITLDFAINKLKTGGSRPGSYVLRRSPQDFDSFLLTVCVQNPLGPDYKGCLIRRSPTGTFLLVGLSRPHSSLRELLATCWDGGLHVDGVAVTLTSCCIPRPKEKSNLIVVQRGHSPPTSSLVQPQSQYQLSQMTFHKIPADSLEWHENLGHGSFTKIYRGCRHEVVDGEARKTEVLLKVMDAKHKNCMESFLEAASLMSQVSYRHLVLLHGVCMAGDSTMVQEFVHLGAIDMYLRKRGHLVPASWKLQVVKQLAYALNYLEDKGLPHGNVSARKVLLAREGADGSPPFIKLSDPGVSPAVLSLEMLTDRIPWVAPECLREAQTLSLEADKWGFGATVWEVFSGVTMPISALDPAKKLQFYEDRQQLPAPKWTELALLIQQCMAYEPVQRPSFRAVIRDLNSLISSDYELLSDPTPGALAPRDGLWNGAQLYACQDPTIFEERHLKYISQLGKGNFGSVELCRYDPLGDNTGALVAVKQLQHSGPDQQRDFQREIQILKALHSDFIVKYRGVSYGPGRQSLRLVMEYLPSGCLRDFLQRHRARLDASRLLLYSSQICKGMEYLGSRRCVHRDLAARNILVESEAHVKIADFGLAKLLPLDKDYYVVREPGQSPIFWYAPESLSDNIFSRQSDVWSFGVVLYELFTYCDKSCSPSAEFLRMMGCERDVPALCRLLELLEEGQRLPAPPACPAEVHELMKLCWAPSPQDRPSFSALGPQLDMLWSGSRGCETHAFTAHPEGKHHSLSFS
Briefly: Measurement of JAK3 kinase-inhibitory activity. The settings on record: substrate peptide 1 μM, ATP 5 μM, 25° C., 80 minutes. On the procedure: 3) Measurement of JAK3 Kinase-Inhibitory Activity
The activity of the compound of the present invention to inhibit the activity of JAK3 kinase was measured.
Among materials for the measurement of this inhibitory activity, a substrate peptide and a kinase protein were acquired as follows. As such a substrate peptide, a substrate peptide for QSS Assist™ JAK3-MSA assay kit (Carna Biosciences, Inc.) was purchased. As such a kinase protein, a purified recombinant human JAK3 protein (Carna Biosciences, Inc.) was purchased.
as §1, with “5” for “10”, “(20” for “(15”, “HEPES” for “Tris”, “Triton X-100).” for “Tween 20).”, “JAK3” for “JAK2”

T1 sequence (P23458 whole entry): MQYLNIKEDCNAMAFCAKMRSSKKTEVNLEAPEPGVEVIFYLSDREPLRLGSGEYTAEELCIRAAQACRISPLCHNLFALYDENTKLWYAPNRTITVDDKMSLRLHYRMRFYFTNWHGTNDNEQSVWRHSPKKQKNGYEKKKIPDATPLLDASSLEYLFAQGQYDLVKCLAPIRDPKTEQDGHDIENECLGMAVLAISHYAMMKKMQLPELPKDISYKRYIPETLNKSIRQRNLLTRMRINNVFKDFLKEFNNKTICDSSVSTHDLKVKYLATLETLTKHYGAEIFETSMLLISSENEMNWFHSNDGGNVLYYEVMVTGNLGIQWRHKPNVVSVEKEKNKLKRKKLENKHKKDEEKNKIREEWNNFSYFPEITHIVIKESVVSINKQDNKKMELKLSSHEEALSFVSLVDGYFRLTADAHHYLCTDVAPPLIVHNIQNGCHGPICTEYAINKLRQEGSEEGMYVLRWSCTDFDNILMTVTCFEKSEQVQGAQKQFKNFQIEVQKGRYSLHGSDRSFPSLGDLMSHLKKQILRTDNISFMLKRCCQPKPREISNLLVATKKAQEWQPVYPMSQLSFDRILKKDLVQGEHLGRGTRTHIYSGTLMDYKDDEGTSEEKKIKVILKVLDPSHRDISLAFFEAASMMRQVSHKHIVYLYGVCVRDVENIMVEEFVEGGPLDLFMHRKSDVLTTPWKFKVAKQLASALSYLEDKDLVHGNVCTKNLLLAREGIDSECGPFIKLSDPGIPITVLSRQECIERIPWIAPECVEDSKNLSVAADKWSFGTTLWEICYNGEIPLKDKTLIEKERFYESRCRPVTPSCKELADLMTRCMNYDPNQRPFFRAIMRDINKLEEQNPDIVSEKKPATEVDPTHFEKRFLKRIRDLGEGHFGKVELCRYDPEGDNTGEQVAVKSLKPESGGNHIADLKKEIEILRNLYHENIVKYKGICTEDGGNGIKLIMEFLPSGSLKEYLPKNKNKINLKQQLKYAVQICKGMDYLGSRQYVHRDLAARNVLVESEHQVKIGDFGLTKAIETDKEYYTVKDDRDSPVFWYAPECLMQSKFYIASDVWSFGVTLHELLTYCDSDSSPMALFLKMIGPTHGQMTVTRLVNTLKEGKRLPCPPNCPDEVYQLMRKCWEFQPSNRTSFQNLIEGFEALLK

In the case of `C=CC(=O)NC1CCC=C(c2ccnc3[nH]cc(-c4ccncc4)c23)C1` (stereo not drawn) [Compound 2, N-(3-(3-(Pyridin-4-yl)-1H-pyrrolo[2,3-b]pyridin-4-yl)cyclohex-3-en-1-yl)acrylamide], the IC50 in assay [1] is greater than 10000 nM; in assay [2], 3100 nM; in assay [3] it was 0.38 nM.

For `C=CC(=O)NC1CCC=C(c2ccnc3[nH]cc(-c4cccnc4)c23)C1` (stereo not drawn) [Compound 4, N-(3-(3-(Pyridin-3-yl)-1H-pyrrolo[2,3-b]pyridin-4-yl)cyclohex-3-en-1-yl)acrylamide], the IC50 in assay [1] worked out at 7000 nM; in assay [2], 2600 nM; in assay [3], 0.53 nM.

On to `C=CC(=O)NC1CCC=C(c2ccnc3[nH]cc(-c4ccc(C=O)o4)c23)C1` (stereo not drawn) [Compound 9, N-(3-(3-(5-Formylfuran-2-yl)-1H-pyrrolo[2,3-b]pyridin-4-yl)cyclohex-3-en-1-yl)acrylamide], for which the IC50 in assay [1] is 2400 nM; in assay [2], 430 nM; in assay [3] it was less than 0.3 nM.

Consider `C=CC(=O)NC1CCC=C(c2ccnc3[nH]cc(-c4cncc(CO)c4)c23)C1` (stereo not drawn) [Compound 11, N-(3-(3-(5-(Hydroxymethyl)pyridin-3-yl)-1H-pyrrolo[2,3-b]pyridin-4-yl)cyclohex-3-en-1-yl)acrylamide], for which the IC50 in assay [1] turned out to be 9500 nM; in assay [2] it was 1900 nM; in assay [3] it was 0.49 nM.

For the compound `C=CC(=O)NC1CCC=C(c2ccnc3[nH]cc(-c4cncs4)c23)C1` (stereo not drawn) [Compound 13, N-(3-(3-(Thiazol-5-yl)-1H-pyrrolo[2,3-b]pyridin-4-yl)cyclohex-3-en-1-yl)acrylamide], the results for the IC50 in assay [1], in assay [2] and in assay [3] were 5200 nM, 2000 nM and 0.34 nM, respectively.

With `C=CC(=O)NC1CCC=C(c2c(OC)cnc3[nH]cc(-c4ccco4)c23)C1` (stereo not drawn) [Compound 17, N-(3-(3-(Furan-2-yl)-5-methoxy-1H-pyrrolo[2,3-b]pyridin-4-yl)cyclohex-3-en-1-yl)acrylamide], the IC50 in assay [1] was 860 nM; in assay [2], 170 nM; in assay [3], less than 0.3 nM.

Take `C=CC(=O)NC1CCC=C(c2c(-c3cnn(C)c3)cnc3[nH]cc(-c4cccnc4)c23)C1` (stereo not drawn) [Compound 19, N-(3-(5-(1-Methyl-1H-pyrazolo-4-yl)-3-(pyridin-3-yl)-1H-pyrrolo[2,3-b]pyridin-4-yl)cyclohex-3-en-1-yl)acrylamide]: the IC50 came to 1000 nM in assay [1], 280 nM in assay [2] and 0.51 nM in assay [3].

Regarding `C=CC(=O)NC1CCC=C(c2ccnc3[nH]cc(C4=CCCCC4)c23)C1` (stereo not drawn) [Compound 30, N-(3-(3-(cyclohex-1-en-1-yl)-1H-pyrrolo[2,3-b]-pyridin-4-yl)cyclohex-3-en-1-yl)acrylamide], the IC50 in assay [1] is 3200 nM; in assay [2], 1400 nM; in assay [3], 0.48 nM.

As for `C=CC(=O)NC1CCC=C(c2ccnc3[nH]cc(C4=CCOCC4)c23)C1` (stereo not drawn) [Compound 31, N-(3-(3-(3,6-Dihydro-2H-pyran-4-yl)-1H-pyrrolo[2,3-b]pyridin-4-yl)cyclohex-3-en-1-yl)acrylamide], the values for the IC50 in assay [1], in assay [2] and in assay [3] were 7700 nM, 3000 nM and 0.71 nM, respectively.

Take `C=CC(=O)NC1CCC=C(c2ccnc3[nH]cc(C4=CC(=O)CCC4)c23)C1` (stereo not drawn) [Compound 32, N-(3-(3-(3-Oxocyclohex-1-en-1-yl)-1H-pyrrolo[2,3-b]pyridin-4-yl)cyclohex-3-en-1-yl)acrylamide]: the IC50 was greater than 10000 nM in assay [1], 3000 nM in assay [2] and 0.72 nM in assay [3].

As to `C=CC(=O)NC1CCC=C(c2ccnc3[nH]cc(C4=CCCC4)c23)C1` (stereo not drawn) [Compound 33, N-(3-(3-(Cyclocyclopent-1-en-1-yl)-1H-pyrrolo[2,3-b]pyridin-4-yl)cyclohex-3-en-1-yl)acrylamide], the IC50 stood at 3600 nM in assay [1], 1400 nM in assay [2] and 0.6 nM in assay [3].
